Read-outs that look alike come from different tables or passages of the source.
How the values were obtained:
[1] = Pattern stability screen of potential salts (40° C./75% RH, XRPD); assay type: physicochemical
Method: XRPD analysis was carried out on a PANalytical X'pert pro, scanning the samples between 3 and 35° 20. The material was gently compressed and loaded onto a multi-well plate with Kapton or Mylar polymer film to support the sample.
Primary Salt Screening. […] The solvent systems shown in Table were selected for salt screening. For sulfonic acids MEK was used instead of methanol and acetone:water 50:50 (v/v) was used instead of IPA:water to avoid any potential genotoxic impurities. Ca. […] If the acid was insoluble in the selected solvent, a slurry was used. If the acid was a liquid it was added to the API slurry from a stock solution in the allocated solvent. The mixtures of API/counterion/solvent were temperature cycled between ambient and 40° C. in 4 hour cycles for ca. 3 days. Any solids present were isolated and allowed to dry at ambient conditions, for ca. 30 minutes prior to analysis by XRPD. Where solutions were obtained they were evaporated to obtain solid material.

[2] = Aqueous solubility assessment of salts; assay type: physicochemical
[3] = Inhaled pharmacokinetics of nintedanib salt forms (intratracheal); assay type: in vivo, C57BL/6 mice; conditions: C57BL/6 mice; for AUC 0-last / Elimination half-life (alpha-phase): 1.0 mg/kg IT; for Cmax: 1.0 mg/kg IT (base equivalent)

Compound: CC(=O)O [Acetate]
- XRPD pattern after 72 hrs 40° C./75% RH ([1]; Initial pattern 1): 1(FB)
- XRPD pattern after 72 hrs 40° C./75% RH ([1]; Initial pattern 2): 1

Compound: O=C(O)/C=C/C(=O)O [Fumarate]
- XRPD pattern after 72 hrs 40° C./75% RH ([1]; Initial pattern 1): 1
- XRPD pattern after 72 hrs 40° C./75% RH ([1]; Initial pattern 2): 2(MU)
- pH (aqueous solubility measurement) ([2]; primary screen samples): 6.41

Compound: COC(=O)c1ccc2c(c1)NC(=O)/C2=C(\Nc1ccc(N(C)C(=O)CN2CCN(C)CC2)cc1)c1ccccc1.O=S(=O)(O)CCO [HESA]
- XRPD pattern after 72 hrs 40° C./75% RH ([1]; Initial pattern 1): 2
- XRPD pattern after 72 hrs 40° C./75% RH ([1]; Initial pattern 2): 2

Compound: N[C@@H](CC(=O)O)C(=O)O [L-Aspartic acid]
- XRPD pattern after 72 hrs 40° C./75% RH ([1]; Initial pattern 1): 1

Compound: COC(=O)c1ccc2c(c1)NC(=O)/C2=C(\Nc1ccc(N(C)C(=O)CN2CCN(C)CC2)cc1)c1ccccc1.CS(=O)(=O)O [MSA]
- XRPD pattern after 72 hrs 40° C./75% RH ([1]; Initial pattern 1): 1
- XRPD pattern after 72 hrs 40° C./75% RH ([1]; Initial pattern 2): 1

Compound: Br.COC(=O)c1ccc2c(c1)NC(=O)/C2=C(\Nc1ccc(N(C)C(=O)CN2CCN(C)CC2)cc1)c1ccccc1 [Nintedanib bromide]
- AUC 0-last ([3]; lung (whole lung homogenate)): 51.2 mg·h/kg
- Elimination half-life (alpha-phase) ([3]; lung (whole lung homogenate)): 4.1 min
- Cmax ([3]; plasma): 200 ng/mL
- AUC 0-last ([3]; plasma): 200 ng·h/mL
- Elimination half-life (alpha-phase) ([3]; plasma): 2.4 min

Compound: COC(=O)c1ccc2c(c1)NC(=O)/C2=C(\Nc1ccc(N(C)C(=O)CN2CCN(C)CC2)cc1)c1ccccc1.Cl [Nintedanib chloride]
- AUC 0-last ([3]; lung (whole lung homogenate)): 60.1 mg·h/kg
- Elimination half-life (alpha-phase) ([3]; lung (whole lung homogenate)): 3.9 min
- Cmax ([3]; plasma): 400 ng/mL
- AUC 0-last ([3]; plasma): 200 ng·h/mL
- Elimination half-life (alpha-phase) ([3]; plasma): 1.7 min

Compound: O=S(=O)(O)O [Sulfuric acid]
- XRPD pattern after 72 hrs 40° C./75% RH ([1]; Initial pattern 1): 1
- XRPD pattern after 72 hrs 40° C./75% RH ([1]; Initial pattern 2): 1
- XRPD pattern after 72 hrs 40° C./75% RH ([1]; Initial pattern 3): 3
- XRPD pattern after 72 hrs 40° C./75% RH ([1]; Initial pattern 4): 3

Compound: Maleic acid
- XRPD pattern after 72 hrs 40° C./75% RH ([1]; Initial pattern 1): 1
- XRPD pattern after 72 hrs 40° C./75% RH ([1]; Initial pattern 2): 2

Compound: Saccharin
- XRPD pattern after 72 hrs 40° C./75% RH ([1]; Initial pattern 1): 2
- XRPD pattern after 72 hrs 40° C./75% RH ([1]; Initial pattern 2): 2
- Solubility (aqueous) [2]: <625 µg/mL
- pH (aqueous solubility measurement) [2]: 5.51
